45 compounds from patent US12152038B2, “Vasopressin receptor antagonists and products and methods related thereto” (Neumora Therapeutics, Inc., priority 2017, dated 2024) can be followed below.

The structures appear in SMILES notation. pIC50: −log10 of the molar value. Bounds are passed on as bounds.

For this test, the target named is T1, human Arginine Vasopressin Receptor 1b (AVPR1b) (Homo sapiens, UniProt P47901).
T1 construct: expressed in transfected cells; host or cells: CHO (CHO-AVPR1b, kept under G418 selection)
T1 sequence (P47901 1-424): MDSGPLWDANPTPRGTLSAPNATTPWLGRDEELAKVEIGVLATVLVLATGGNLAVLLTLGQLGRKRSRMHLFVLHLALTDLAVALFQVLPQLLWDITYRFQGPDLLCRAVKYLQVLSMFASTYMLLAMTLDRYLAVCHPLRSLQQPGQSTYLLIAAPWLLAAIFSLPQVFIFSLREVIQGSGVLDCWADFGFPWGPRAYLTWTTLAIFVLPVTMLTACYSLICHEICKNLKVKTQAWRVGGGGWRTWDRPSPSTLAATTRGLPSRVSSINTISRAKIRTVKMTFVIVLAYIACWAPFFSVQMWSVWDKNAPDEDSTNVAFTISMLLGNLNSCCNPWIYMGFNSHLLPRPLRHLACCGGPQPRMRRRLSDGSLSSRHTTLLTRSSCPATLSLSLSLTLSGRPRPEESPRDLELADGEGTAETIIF
The test is described as follows: Vasopressin V1b receptor antagonist assay (FLIPR calcium, CHO-AVPR1b cells). Type of test: cell-based. The protocol: The purpose of the assay was to determine the inhibitory effect of synthesized compounds on the Vasopressin V1b receptor. The assay was performed in Chinese Hamster Ovary (CHO) cells expressing the human Arginine Vasopressin Receptor 1b (AVPR1b). Arginine Vasopressin (AVP) evokes an increase in intracellular calcium in CHO-AVPR1b cells which is measured in a fluorescence assay on the FLIPR^TETRA using calcium sensitive dyes. Test compounds were assessed for their ability to affect the magnitude of the response to AVP, with antagonists showing a concentration-dependent reduction in the AVP-mediated fluorescence.
CHO-AVPR1b cells were maintained in routine culture in T175 Flasks at 37° C., 5% CO2. The growth medium consisted of Ham's F12 media supplemented with 10% v/v fetal bovine serum, 1× non-essential amino acids, and 0.4 mg/ml Geneticin G418.
Cells were harvested from T175 flasks when they were 80-90% confluent by first washing the cell monolayer with PBS and then dissociated using trypsin 0.05%/EDTA (3 mL for a T175 Flask). The flasks were incubated at room temperature until the cells detached. To the cell suspension, 10 ml of growth media was added and the cell density determined using the Vi-Cell automated cell counter. The cells were spun at 1000 rpm for 3 minutes, then the supernatant was carefully removed and discarded. The cell pellet was re-suspended at 6.0e^5 cells/ml in growth media. 25 μL of cells in growth media was dispensed into each well (15,000 cells per well) of a poly-D-lysine coated black, clear bottomed, 384-well plate. The plates were incubated at 37° C., 5% CO2 overnight.
At the start of each assay day, the potency of AVP was assessed and an EC80 concentration determined for subsequent compound profiling. Assays were performed using a two-step addition protocol on the FLIPR^TETRA; first addition of 5 μl of control or test compound at 10× final in assay buffer with 15 min incubation at 37° C., 5% CO2 followed by 10 μl of AVP at 6× final concentration in assay buffer. Changes in fluorescence were monitored for 3 min after both additions on the FLIPR^TETRA using 470-495 nm excitation and 515-575 nm emission wavelengths. The assay buffer consisted of HBSS (+Ca/+Mg) supplemented with 20 mM HEPES, and for the preparation of the AVP agonist only, 0.1% w/v bovine serum albumin. The assay was initiated by the removal of growth media from the cells and replacement with 45 μl of Calcium-6 dye (Molecular Devices) prepared at 1× in assay buffer. Cells were loaded with dye for 60-90 min at 37° C., 5% CO2 before initiation of the FLIPR^TETRA protocol. […] For compound profiling, test compounds were first serially diluted in DMSO (10-point curve, 1:3 dilutions) then diluted 33.3-fold in assay buffer prior to addition to the dye loaded cells on the FLIPR^TETRA. At the end of the incubation period 10 μl of AVP in assay buffer containing 0.1% BSA was added at the previously determined EC80 concentration.
In-plate controls for the assay included a Nelivaptan concentration-response curve as the reference V1b antagonist and an AVP concentration-response curve to confirm the reproducibility of the EC80 used for the compound challenge.
In the case of `CC1COc2cc(Cl)ccc2N1C(=O)N1CC2(C1)CN(c1ncccn1)C2` (single isomer, unassigned) [1-83-B, (7-chloro-3-methyl-2,3-dihydro-4H-benzo[b][1,4]oxazin-4-yl)(6-(pyrimidin-2-yl)-2,6-diazaspiro[3.3]heptan-2-yl)methanone], the pIC50 (commonly −log10 of the IC50, conventionally taken in molar units) was not above 6.00.
Turning to `CC1COc2cc(F)ccc2N1C(=O)N1CC2(C1)CN(c1noc3ccccc13)C2` (single isomer, unassigned) [4-3-B], the negative logarithm of the IC50 (pIC50) is not above 6.00.
The figure for `CC1COc2cc(Cl)ccc2N1C(=O)N1CC2(C1)CN(c1cccnn1)C2` (single isomer, unassigned) [9-1-A] is not above 6.00; for `CC1COc2cc(Cl)ccc2N1C(=O)N1CC2(C1)CN(c1cccnn1)C2` (single isomer, unassigned) [9-1-B] it is not above 6.00.
In the case of `CC1CN(C(=O)N2CC3(C2)CN(c2ccc(F)cn2)C3)c2ccc(Cl)cc2O1` (single isomer, unassigned) [9-3-A] it was not above 6.00.
As to `CC1CN(C(=O)N2CC3(C2)CN(c2ccc(F)cn2)C3)c2ccc(F)cc2O1` (single isomer, unassigned) [9-4-B], the negative-log IC50 (pIC50) was not above 6.00.
The figure for `CC1COc2cc(F)ccc2N1C(=O)N1CC2(C1)CN(c1ccc(F)cn1)C2` (single isomer, unassigned) [12-1-B] is not above 6.00; for `O=C(N1CC2(C1)CN(c1ccc(F)cn1)C2)N1CCC(O)c2cc(Cl)ccc21` (single isomer, unassigned) [13-1-A] it is not above 6.00.
The figure for `O=C(N1CC2(C1)CN(c1ccccn1)C2)N1CCC(O)c2cc(Cl)ccc21` (single isomer, unassigned) [13-2-A] is not above 6.00.
In the case of `O=C(N1CC2(C1)CN(c1ccccn1)C2)N1CCC(O)c2cc(Cl)ccc21` (single isomer, unassigned) [13-2-B] it was not above 6.00.
For the compound `O=C(N1CC2(C1)CN(c1cnccn1)C2)N1CCC(O)c2cc(Cl)ccc21` (single isomer, unassigned) [13-3-A], the pIC50 was not above 6.00.
Take `CC1COc2cc(Cl)ccc2N1C(=O)N1CC2(C1)CN(c1noc3cccnc13)C2` (single isomer, unassigned) [18-3-B]: the pIC50 was not above 6.00.
In the case of `CC1COc2cc(F)ccc2N1C(=O)N1CC2(C1)CN(c1ncc(F)cn1)C2` (single isomer, unassigned) [18-4-B], the negative-log IC50 (pIC50) is not above 6.00.
For the compound `CC1COc2cc(F)c(F)cc2N1C(=O)N1CC2(C1)CN(c1ncccn1)C2` (single isomer, unassigned) [19-1-B], the negative-log IC50 (pIC50) is not above 6.00.
In the case of `CC1COc2cc(Cl)c(F)cc2N1C(=O)N1CC2(C1)CN(c1ncccn1)C2` (single isomer, unassigned) [19-2-B] it was not above 6.00; in that of `CC1COc2cc(F)c(F)cc2N1C(=O)N1CC2(C1)CN(c1cccnn1)C2` (single isomer, unassigned) [19-3-B], not above 6.00.
With `CC1COc2cc(Cl)c(F)cc2N1C(=O)N1CC2(C1)CN(c1cccnn1)C2` (single isomer, unassigned) [19-4-A], the negative-log IC50 (pIC50) was not above 6.00.
In the case of `CC1COc2cc(F)c(F)cc2N1C(=O)N1CC2(C1)CN(c1ccc(F)cn1)C2` (single isomer, unassigned) [19-5-B] it was not above 6.00; in that of `CC1COc2cc(Cl)ccc2N1C(=O)N1CC2(C1)CN(c1cccnc1)C2` (single isomer, unassigned) [20-1-B], not above 6.00; in that of `Cc1cncc(N2CC3(CN(C(=O)N4c5ccc(F)cc5OCC4C)C3)C2)n1` (single isomer, unassigned) [20-2-A], not above 6.00.
In the case of `Cc1cncc(N2CC3(CN(C(=O)N4c5ccc(F)cc5OCC4C)C3)C2)n1` (single isomer, unassigned) [20-2-B], the pIC50 is not above 6.00.
In the case of `CC1COc2cc(F)ccc2N1C(=O)N1CC2(C1)CN(c1cc(C#N)ccn1)C2` (single isomer, unassigned) [20-3-B] it was not above 6.00; in that of `Cc1ccnc(N2CC3(CN(C(=O)N4c5ccc(F)cc5OCC4C)C3)C2)c1` (single isomer, unassigned) [20-4-B], not above 6.00; in that of `Cc1cnc(N2CC3(CN(C(=O)N4c5ccc(Cl)cc5OCC4C)C3)C2)cn1` (single isomer, unassigned) [20-5-B], not above 6.00.
For the compound `CC1COc2cc(Cl)ccc2N1C(=O)N1CC2(C1)CN(c1cc(C#N)ccn1)C2` (single isomer, unassigned) [20-6-B], the pIC50 is not above 6.00.
The figure for `Cc1nc(N2CC3(CN(C(=O)N4c5ccc(Cl)cc5OCC4C)C3)C2)ncc1F` (single isomer, unassigned) [20-7-B] is not above 6.00.
The figure for `COc1ccnc(N2CC3(CN(C(=O)N4c5ccc(Cl)cc5OCC4C)C3)C2)c1` (single isomer, unassigned) [20-8-B] is not above 6.00.
The figure for `COc1ccnc(N2CC3(CN(C(=O)N4c5ccc(Cl)cc5OCC4C)C3)C2)n1` (single isomer, unassigned) [20-9-B] is not above 6.00; for `Cc1nccnc1N1CC2(CN(C(=O)N3c4ccc(Cl)cc4OCC3C)C2)C1` (single isomer, unassigned) [20-10-A] it is not above 6.00; for `Cc1ccnc(N2CC3(CN(C(=O)N4c5ccc(Cl)cc5OCC4C)C3)C2)n1` (single isomer, unassigned) [20-12-B] it is not above 6.00.
Regarding `O=C(N1CC2(C1)CN(c1ncccn1)C2)N1CCOc2cc(Cl)ccc21` [1-4], the pIC50 is not above 6.00.
Consider `Cc1cccnc1N1CC2(CN(C(=O)N3CCOc4cc(Cl)ccc43)C2)C1` [1-5], for which the negative-log IC50 (pIC50) was not above 6.00.
Consider `Cc1ccnc(N2CC3(CN(C(=O)N4CCOc5cc(Cl)ccc54)C3)C2)c1` [1-14], for which the negative logarithm of the IC50 (pIC50) was not above 6.00.
Consider `COc1ccnc(N2CC3(CN(C(=O)N4CCOc5cc(Cl)ccc54)C3)C2)c1` [1-15], for which the pIC50 was not above 6.00.
In the case of `O=C(N1CC2(C1)CN(c1ncccc1F)C2)N1CCc2cc(Cl)ccc21` [1-76] it was not above 6.00; in that of `O=C(N1CC2(C1)CN(c1ccccn1)C2)N1CCc2cc(Cl)ccc21` [1-77], not above 6.00; in that of `O=C(N1CC2(C1)CN(c1cccc(F)n1)C2)N1CCc2cc(Cl)ccc21` [1-78], not above 6.00.
The figure for `O=C(N1CC2(C1)CN(c1cc(F)ccn1)C2)N1CCc2cc(Cl)ccc21` [1-79] is not above 6.00.
With `O=C(N1CC2(C1)CN(c1cccnn1)C2)N1CCOc2cc(Cl)c(F)cc21` [1-81], the pIC50 was not above 6.00.
In the case of `O=C(N1CC2(C1)CN(c1noc3ccccc13)C2)N1CCOc2cc(Cl)ccc21` [4-1, (6-(benzo[d]isoxazol-3-yl)-2,6-diazaspiro[3.3]heptan-2-yl)(7-chloro-2,3-dihydro-4H-benzo[b][1,4]oxazin-4-yl)methanone] it was not above 6.00.
With `O=C(N1CC2(C1)CN(c1ncc(F)cn1)C2)N1CCOc2cc(Cl)ccc21` [4-2], the pIC50 was not above 6.00.
The figure for `CC1COc2cc(F)ccc2N1C(=O)N1CC2(C1)CN(c1noc3ccccc13)C2` (stereo not drawn) [4-3] is not above 6.00; for `Cc1nc(N2CC3(CN(C(=O)N4CCOc5cc(Cl)ccc54)C3)C2)ncc1F` [6-1, (7-chloro-2,3-dihydro-4H-benzo[b][1,4]oxazin-4-yl)(6-(5-fluoro-4-methylpyrimidin-2-yl)-2,6-diazaspiro[3.3]heptan-2-yl)methanone] it is not above 6.00.
On to `O=C(N1CC2(C1)CN(c1ccccn1)C2)N1CCOc2cc(Cl)ccc21` [8-2], for which the pIC50 was not above 6.00.
`O=C(N1CC2(C1)CN(c1cnccn1)C2)N1CCOc2cc(Cl)ccc21` [8-3]: the pIC50 is not above 6.00.
